In patent publication EP4717275A1, “ANTI-LUNG CANCER COMBINED DRUG AND USE THEREOF” (Gunagdong Yinzhu Pharmaceutical Technology Co., Ltd, priority 2023, dated 2024):
pIC50: −log10 of the molar value. Values joined by “and” are separate entries in the source; they are usually repeats but may differ in a detail not shown here. Identical values can stand only once. Like-named read-outs stand apart in the source and are kept apart here. Marks after values point to notes of the source that are not given here.

What was measured:
[1] = test system: human lung cancer NCI-H2228 xenografts; experiment: Therapeutic effect in vivo on NCI-H2228 xenografts in nude mice; set-up: species or system BALB/c Nude mice; conditions: PO
Experimental: (§1) BALB/c Nude mice, female, 8-10 weeks old, 18-20g. The variation of the body weight is ±20% around average body weight. 80 mice were inoculated and 60 mice were grouped.
Table 9 Experimental design of therapeutic effect of the drugs in vivo
NCI-H2228 cells were cultured in RPMI 1640 medium supplemented with 10% FBS and maintained in a 37°C, 5% CO2 humidified incubator.
Log-phase NCI-H2228 cells were harvested, resuspended in RPMI 1640 basal medium containing 50% Matrigel, and adjusted to a concentration of 2 × 10^7 cells/mL. Under aseptic conditions, 0.1 mL of the cell suspension was injected subcutaneously into the right flank of mice at a concentration of 2 × 10^6 cells/0.1 mL/mouse.
When the mean tumor volume reached approximately 150 mm^3, animals were randomly grouped based on tumor volume, ensuring inter-group tumor volume variation was less than 10% of the mean.
(§2) The grouping day was designated as Day 0, and administration commenced according to animal body weight.
(§3) The same as the therapeutic effect evaluation experiments for Examples 1-2 and Comparative Examples 1-3.

[2] = Animal body weight, fatality and toxicity observation in the NCI-H2228 xenograft study; assay type: in vivo, BALB/c Nude mice
Source text: as §1, §2, §3

NCI-H2228 cell = experiment: CCK8 proliferation assay with combination index analysis; assay type: cell-based, human; conditions: Alectinib alone
Experimental: CCK8 method was used to evaluate the effect of the drugs towards proliferation of lung cancer cell line (NCI-H2228 cell). The cellular viability with different concentration of drug was assayed and the 50% inhibitory concentration was calculated.
Emerge NCI-H2228 cells (purchased from American Type Culture Collection (ATCC, Manassas, VA, USA)) from liquid nitrogen and thaw in a 37°C water bath. After thawing, culture cells in 1640 medium.
When cell density reached 90% confluence in culture medium, cells were digested with 0.25% trypsin and resuspended. After cell growth stabilized, cells in the logarithmic growth phase were harvested and counted using a cell counter and it was ensured that viability exceeded 85% for all cell lines.
Adjust cell concentration by diluting with culture medium. Add 100 µL of cell suspension to a 96-well plate to achieve a density of 3000 cells/well. Add 100 µL of PBS buffer to the wells around the cell-seeded wells.
Incubate the 96-well plate at 37°C, 5% CO2, and 95% humidity overnight.
Remove the cell culture plate from the incubator, aspirate the culture medium, and add the prepared drug-containing medium. Incubate at 37°C, 5% CO2, and 95% humidity for 72 hours.
Add 10 µL of CCK-8 solution to each well of the 96-well plate. Incubate the plate in the cell culture incubator for 1.5 hours. Measure the absorbance at 450 nm using a microplate reader.
Analyze data using GraphPad Prism 5.0 software. Fit the data using nonlinear S-curve regression to generate a dose-response curve and calculate the IC50 value. [formula]
The analysis of the combination index of the compound was performed using the median effect principle. The formula for the combination index of two compounds is: CI = (D)1/(Dx)1 + (D)2/(Dx)2 [formula]
Where: • (D)1---- The concentration of Compound 1 when compound 1 was used with another compound and the effect X was generated; • (D)2---- The concentration of Compound 2 when compound 2 was used with another compound and the effect X was generated; • (Dx)1---- The concentration of Compound 1 when compound 1 was used alone and the effect X was generated; • (Dx)2---- The concentration of Compound 2 when compound 2 was used alone and the effect X was generated.
The CI value enables quantitative assessment of the nature and strength of interactions between different compounds (Table 2). Interaction strength is measured using the weighted average CI (CIwt), calculated by the formula: CIwt = (CI50+2CI75+3CI90+4CI95)/10 [formula]
Where: • CI50 ---- CI value at EC50 (concentration achieving 50% effect) • CI75, CI90, and CI95 follow the same principle, representing the CI values at EC75, EC90, and EC95, respectively.
Evaluation of the combination effect: CI value is used to evaluate the combination effect, and the judgment method is shown in Table 7. Table 7 Judgment criteria of the results

[3] = test system: human lung cancer NCI-H1975 xenografts; experiment: Therapeutic effect in vivo on NCI-H1975 xenografts in nude mice; set-up: species or system BALB/c Nude mice; conditions: PO
Experimental: BALB/c Nude mice, female, 8-10 weeks old, 18-20g. […] Table 2 Experimental design of therapeutic effect of the drugs in vivo […] NCI-H1975 cells were cultured in RPMI 1640 medium supplemented with 10% FBS and maintained in a 37°C, 5% CO2 humidified incubator. Log-phase NCI-H1975 cells were harvested, resuspended in RPMI 1640 basal medium containing 50% Matrigel, and adjusted to a concentration of 2 × 10^7 cells/mL. Under aseptic conditions, 0.1 mL of the cell suspension was injected subcutaneously into the right flank of mice at a concentration of 2 × 10^6 cells/0.1 mL/mouse. […] The grouping day was designated as Day 0, and administration commenced according to animal body weight. […] Animal body weight and tumor volume were measured twice weekly throughout the experiment. Tumor length and width were measured using a digital caliper, with tumor volume estimated from these measurements. After the final weighing on Day 21, remaining animals were euthanized with CO2. Tumors were weighed, photographed, and the experiment concluded. […] Tumor growth inhibition rate (%TGITV) is calculated as: […] Relative Tumor Volume (RTV) is calculated as Vt/V0, where V0 is the tumor volume at grouping and Vt is the tumor volume at each measurement. Relative Tumor Growth Rate (%T/CRTV) is calculated as TRTV/CRTV × 100%, where TRTV is the RTV of the treatment group and CRTV is the RTV of the negative control group. Tumor growth inhibition rate (%TGITW) is calculated as: ([…] × 100%, where TWc is the average tumor weight in the negative control group and TWT is the average tumor weight in the treatment group. […] Drug-related animal mortality exceeding 20% indicates severe toxicity at that dose. All experimental data in this study are expressed as Mean ± SEM. The evaluation of the combination index (CI) of drugs relies on the following equation: […]), wherein E(A+B) is the inhibition rate of combination drug, EA and EB is the inhibition rate of drug A and drug B respectively. E(A+B) in the equation represents 'measured synergistic effect' and (EA+EB-EA×EB) is 'expected synergistic effect'. CI=0.85-1.15 indicates a mere addition of the effect of two drugs, >1.15 indicates enhancement (or synergy), and <0.85 indicates antagonism. • Combination index of tumor growth inhibition: CAI, 40mg/kg + AZD9291, 1mg/kg: 1.27; […] CAI, 40mg/kg + AZD9291, 1mg/kg: 1.20; […]

[4] = assay type: in vivo
Experimental: as §1, §2
Animal body weight and tumor volume were measured twice weekly throughout the experiment. Tumor length and width were measured using a digital caliper, with tumor volume estimated from these measurements.
Clinical observations were recorded daily to assess overall health status, weight abnormalities, behavioral changes, and other treatment-related adverse reactions.
In accordance with animal welfare regulations, animals meeting any of the following criteria during the study were removed from the experimental group and euthanized: 1. Body weight loss exceeding 20% compared to Day 0 (BWL ≥ 20%); 2. Severe adverse reactions such as blindness or paralysis; 3. Tumor volume exceeding 2000 mm^3; 4.
The animal body weight change rate (%BWC) is calculated as: (BWt - BW0) / BW0 × 100%, where BWt is the animal body weight at each measurement and BW0 is the animal body weight at grouping.
According to China's NMPA Technical Guidance Principles for Non-clinical Studies of Cytotoxic Antineoplastic Drugs (November 2006), %T/CRTV ≤ 40% and statistically significant P < 0.05 indicate efficacy. Drug-related animal mortality exceeding 20% indicates severe toxicity at that dose.
All experimental data in this study are expressed as Mean ± SEM.

[5] = %TGITV from tumor volume vs control, QD×21
[6] = %TGITW from tumor weight vs control, QD×21

CCc1cc2c(cc1N1CCC(N3CCOCC3)CC1)C(C)(C)c1[nH]c3cc(C#N)ccc3c1C2=O [Alectinib]
Relative tumor proliferation rate(%) Day 21 ([1]; %T/CRTV, QD×21): 59.77%
Tumor growth inhibition rate(%) Day 21 [1, 5]: 41.23%
Tumor inhibition rate(%) Day 21 [1, 6]: 49.14%
Tumor volume (mm^3,Mean±SEM) Day 21 ([1]; QD×21, dose per group): 863.95± 98.37* mm^3
Tumor weight (g,Mean±SEM) Day 21 ([1]; QD×21, listed as Comparative Example 4): 0.444 ± 0.049 g
Relative tumor volume Day 21 ([1]; RTV = Vt/V0, Mean ± SEM, QD×21): 5.23± 0.32
Fatality ([2]; dead/total animals at Day 21, NCI-H2228 study, PO, QD×21): 0/10 (Day 21)
inhibitory effect on animal weight gain ([2]; mouse, in vivo): slight inhibition effect on animal body weight
Average body weight (g, Mean ± SEM) Day 0 ([2]; mouse, in vivo, po): 22.48 ± 0.33 g
Average body weight (g, Mean ± SEM) Day 21 ([2]; mouse, in vivo, po): 22.20 ± 0.41 g
Body weight change Day 21 vs Day 0 (g, in brackets) ([2]; mouse, in vivo, po): -0.28 g
Body weight change rate Day 21 vs Day 0 ([2]; mouse, in vivo, po): -1.13%
pIC50 (NCI-H2228 cell; single plates 1-3, 72 hours, read-out: IC50 (Alectinib)): 6.33 and 6.26
pIC50 (NCI-H2228 cell; Homo sapiens, NCI-H2228, 72 h, average of 3 plates, read-out: IC50 (Alectinib)): 6.28
pIC50 (NCI-H2228 cell; Homo sapiens, NCI-H2228, 72 h, single plates 1-3, read-out: IC50 (Alectinib)): 6.25

C=CC(=O)Nc1cc(Nc2nccc(-c3cn(C)c4ccccc34)n2)c(OC)cc1N(C)CCN(C)C [Comparative Example 1, osimertinib]
Relative tumor proliferation rate(%) Day 21 ([3]; %T/CRTV, QD×21): 81.08%
Tumor growth inhibition rate(%) Day 21 [3, 5]: 21.02%
Tumor inhibition rate(%) Day 21 [3, 6]: 14.73%
Tumor weight (g,Mean±SEM) Day 21 ([3]; QD×21): 1.401 ± 0.212 g
Tumor volume (mm^3,Mean±SEM) Day 21 ([3]; QD×21, dose per group): 1394.40 ±181.52 mm^3
Relative tumor volume Day 21 ([3]; RTV = Vt/V0, Mean ± SEM, QD×21): 8.74 ± 0.73
Fatality ([4]; dead/total animals at Day 21, NCI-H1975 study, PO, QD×21): 0/10 (Day 21)
Average body weight (g, Mean ± SEM) Day 0 ([4]; mouse, in vivo, po): 19.47 ± 0.28 g
Average body weight (g, Mean ± SEM) Day 21 ([4]; mouse, in vivo, po): 21.46 ± 0.42 g
Body weight change Day 21 vs Day 0 (g, in brackets) ([4]; mouse, in vivo, po): 1.99 g
Body weight change rate Day 21 vs Day 0 ([4]; mouse, in vivo, po): 10.15%
